Reference: US20210024879A1, “BIOSYNTHETIC ACTIVITY OF THE ANAPLASMA PHAGOCYTOPHILUM AND EHRLICHIA CHAFFEENSIS PHAGOSOME IN A HOST CELL-FREE MEDIUM” (Kansas State University Research Foundation, priority 2018, published 2021)

Columns and labels:
[1] = system: E. chaffeensis cell-free organisms (DC and RC fractions); experiment: Protein synthesis by 35S-cysteine-methionine incorporation in cell-free E. chaffeensis in axenic medium; assay type: cell-based, Ehrlichia chaffeensis; details: for protein biosynthesis with different energy sources: RC form recovered from DH82 cultures, axenic medium supplemented with the carbon source, FIGS. 5A and 5B; for protein synthesis (35S Cys-Met incorporation) when inhibitor included in the media: axenic media with G6P, 24 h, renografin-purified organisms, FIG. 1
Method: Protein synthesis by ^35S-cysteine-methionine incorporation: Protein synthesis in cell-free purified fractions of E. chaffeensis was measured by incorporation of ^35S-Cys-Met (Perkin Elmer, Waltham, Mass.) as described by Omsland, A., et al., in Developmental stage-specific metabolic and transcriptional activity of Chlamydia trachomatis in an axenic medium. Proc Natl Acad Sci USA. […] For normalization of bacterial total protein content, the suspension of E. chaffeensis cell-free fractions were lysed in 1% (wt/vol) SDS for 5 minutes at 100° C. and the total protein concentration was determined using Protein Assay kit (Bio-Rad, Hercules, Calif.). Subsequently, the suspensions of E. chaffeensis cell-free fractions were equally split into micro-centrifuge tubes at the amount of 30 μg total protein. Partially opened micro-centrifuge tubes containing 500 μL of medium supplemented with 70 μCi of ^35S-Cys-Met were incubated at 37° C. for 24 hours in a tri-gas incubator set to maintain 2.5% O2. E. chaffeensis cell-free organisms were pelleted at the end of incubation by centrifugation at 15,000×g for 15 minutes at 4° C., washed with K-36 buffer (0.05M K2HPO4, 0.05M KH2PO4, 0.1M KCl, 0.15M NaCl, pH7.0) twice, and disrupted by adding 30 μL of 2×SDS-PAGE sample buffer and by boiling for 5 minutes. Ten μL of lysate each was then transferred to a tube containing 5 mL of biosafe liquid II and used for quantification of ^35S-Cys-Met incorporation using the protocol 4 (^35S) in a liquid scintillation counter (TRI-CARB 2100TR, PerkinElmer, Waltham, Mass.). For visualizing the radiolabel incorporation into bacterial proteins, equal volumes of sample lysates were also separated in an SDS/PAGE and the gel was dried and exposed to an X-ray film. Similarly, cell-free growth experiments were carried out in the absence of ^35S-Cys-Met, resolved on an SDS-PAGE gel, and stained using silver nitrate staining kit (Pierce/ThermoFisher Scientific) as per the manufacturer's recommendations.

[2] = system: E. chaffeensis cell-free phagosomes; experiment: 35S Cys-Met incorporation into cell-free phagosomes; assay type: cell-based, Ehrlichia chaffeensis; details: energy source or CHL in axenic medium
Method: (§1) Protein synthesis by ^35S-cysteine-methionine incorporation: Protein synthesis in cell-free purified phagosomes of A. phagocytophilum or E. chaffeensis was measured by incorporation of […] (Perkin Elmer, Waltham, Mass.) as described previously. For normalization of bacterial total protein content, the suspension of the cell-free phagosomes were lysed in 1% (wt/vol) SDS for 5 minutes at 100° C. and the total protein concentration was determined using Protein Assay kit (Bio-Rad, Hercules, Calif.). Subsequently, the suspensions of cell-free phagosomes were equally split into micro-centrifuge tubes at the amount of 30 μg total protein. Partially opened micro-centrifuge tubes containing 500 μL of medium supplemented with 70 μCi of ^35S-Cys-Met were incubated 24 hours at 37° C. in a tri-gas incubator set to maintain 2.5% O2. The cell-free organisms were pelleted at the end of incubation by centrifugation at 15,000×g for 15 minutes at 4° C., washed with K-36 buffer (0.05M K2HPO4, 0.05M KH2PO4, 0.1M KCl, 0.15M NaCl, pH7.0) twice, and disrupted by adding 30 μL of 2×SDS-PAGE sample buffer and by boiling for 5 minutes. Ten μL of lysate each was then transferred to a tube containing 5 mL of biosafe liquid II and used for quantification of ^35S-Cys-Met incorporation using the protocol 4 (^35S) in a liquid scintillation counter (TRI-CARB 2100TR, PerkinElmer, Waltham, Mass.). For visualizing the of radiolabel incorporation into phagosomes proteins, equal volumes of sample lysates were also separated in an SDS/PAGE and the gel was dried and exposed to an X-ray film. Similarly, cell-free growth experiments were carried out in the absence of added ^35S-Cys-Met, resolved on an SDS-PAGE gel and stained using silver nitrate staining kit (Pierce/ThermoFisher Scientific) as per the manufacturer's recommendations.

[3] = system: A. phagocytophilum cell-free phagosomes; experiment: as above; assay type: cell-based, Anaplasma phagocytophilum; details: energy source or CHL in axenic medium
Method: as §1

[4] = system: A. phagocytophilum cell-free phagosome; experiment: Protein biosynthesis by protein fractionation, silver stained SDS polyacrylamide gel; assay type: cell-based, Anaplasma phagocytophilum; details: FIGS. 15A and 15B, CHL-containing lanes
Method: Sodium dodecyl sulfate polyacrylamide gel electrophoresis: Five μL of NuPAGE LDS sample buffer and 2 μL of NuPAGE reducing agent (Invitrogen/ThermoFisher Scientific) were added to each of 10 μL of sample solution following cell-free incubation experiments in the axenic medium, boiled for 5 minutes, and then loaded onto a Mini-PROTEAN Precast Bis-Tris 4% to 14% gels (Bio-rad, Hercules, Calif.) and subjected to electrophoresis (100 mA/gel for 60 minutes). The gels were then stained with Silver staining kit (Pierce/ThermoFisher Scientific) according to the manufacturer's recommendations.
Western blot analysis to assess protein synthesis: For detection of the DnaK and P28 proteins of E. chaffeensis or the Dnak of A. phagocytophilum, the above described electrophoresed proteins were transferred onto a nitrocellulose membrane (Thermo Fisher Scientific, Waltham, Mass.) by subjecting to electro-blotting using an electrophoretic transfer unit (Bio-Rad). Protein transfer buffer was prepared as per the manufacturer's instructions and used in the protein transfer protocols. Subsequently, E. chaffeensis DnaK and P28 expressions were assessed using the polyclonal rabbit antisera raised against a recombinant E. chaffeensis proteins for DnaK and P28, respectively. […]

O=C(O)CCC(=O)C(=O)O [alpha ketoglutarate]
protein biosynthesis with different energy sources [1]: supported the protein biosynthesis similarly

Nc1ncnc2c1ncn2[C@@H]1O[C@H](COP(=O)(O)OP(=O)(O)OP(=O)(O)O)[C@@H](O)[C@H]1O [ATP, adenosine triphosphate]
incorporation of 35S Cys-Met ([2]; FIG. 12B photograph): showed incorporation
incorporation of 35S Cys-Met ([2]; FIG. 12D graph): showed incorporation
incorporation of 35S Cys-Met ([3]; FIG. 12A photograph): showed incorporation
incorporation of 35S Cys-Met ([3]; FIG. 12C graph): showed incorporation

O[C@H](CS)[C@H](O)CS (racemic) [DTT, Dithiothreitol]
impact of exclusion of reducing agent on protein biosynthesis ([1]; axenic medium with G6P, absence of DTT, RC fraction): only a marginal negative effect

CC(=O)[O-].[Na+] [sodium acetate]
protein biosynthesis with different energy sources [1]: supported the protein biosynthesis similarly

O=C(N[C@H](CO)[C@H](O)c1ccc([N+](=O)[O-])cc1)C(Cl)Cl [CHL, chloramphenicol, reference compound]
incorporation of 35S Cys-Met ([2]; FIG. 12B photograph): no incorporation
incorporation of 35S Cys-Met ([2]; FIG. 12D graph): no incorporation
incorporation of 35S Cys-Met ([3]; FIG. 12A photograph): no incorporation
incorporation of 35S Cys-Met ([3]; FIG. 12C graph): no incorporation
protein synthesis (protein abundance, silver stained gel) [4]: no synthesis
protein synthesis (35S Cys-Met incorporation) when inhibitor included in the media [1]: abolished

CO[C@H]1/C=C/O[C@@]2(C)Oc3c(C)c(O)c4c(O)c(c(/C=N/N5CCN(C)CC5)c(O)c4c3C2=O)NC(=O)/C(C)=C\C=C\[C@H](C)[C@H](O)[C@@H](C)[C@@H](O)[C@@H](C)[C@H](OC(C)=O)[C@@H]1C [rifampin, reference compound]
protein synthesis (35S Cys-Met incorporation) when inhibitor included in the media [1]: abolished

O=C[C@H](O)[C@@H](O)[C@H](O)[C@H](O)COP(=O)(O)O [G6P, glucose 6-phosphate]
incorporation of 35S Cys-Met ([2]; FIG. 12B photograph): showed incorporation
incorporation of 35S Cys-Met ([2]; FIG. 12D graph): showed incorporation
incorporation of 35S Cys-Met ([3]; FIG. 12A photograph): showed incorporation
incorporation of 35S Cys-Met ([3]; FIG. 12C graph): showed incorporation
protein biosynthesis with different energy sources [1]: supported the protein biosynthesis similarly
